Test results reported in US20210122730A1, “GLUCOCORTICOID RECEPTOR MODULATORS” (ORIC Pharmaceuticals, Inc., priority 2017, published 2021).

Target: T1, PR (Homo sapiens, UniProt P06401)
T1 construct: expressed in transfected cells; host or cells: CHO-K1
T1 sequence (P06401 1-933): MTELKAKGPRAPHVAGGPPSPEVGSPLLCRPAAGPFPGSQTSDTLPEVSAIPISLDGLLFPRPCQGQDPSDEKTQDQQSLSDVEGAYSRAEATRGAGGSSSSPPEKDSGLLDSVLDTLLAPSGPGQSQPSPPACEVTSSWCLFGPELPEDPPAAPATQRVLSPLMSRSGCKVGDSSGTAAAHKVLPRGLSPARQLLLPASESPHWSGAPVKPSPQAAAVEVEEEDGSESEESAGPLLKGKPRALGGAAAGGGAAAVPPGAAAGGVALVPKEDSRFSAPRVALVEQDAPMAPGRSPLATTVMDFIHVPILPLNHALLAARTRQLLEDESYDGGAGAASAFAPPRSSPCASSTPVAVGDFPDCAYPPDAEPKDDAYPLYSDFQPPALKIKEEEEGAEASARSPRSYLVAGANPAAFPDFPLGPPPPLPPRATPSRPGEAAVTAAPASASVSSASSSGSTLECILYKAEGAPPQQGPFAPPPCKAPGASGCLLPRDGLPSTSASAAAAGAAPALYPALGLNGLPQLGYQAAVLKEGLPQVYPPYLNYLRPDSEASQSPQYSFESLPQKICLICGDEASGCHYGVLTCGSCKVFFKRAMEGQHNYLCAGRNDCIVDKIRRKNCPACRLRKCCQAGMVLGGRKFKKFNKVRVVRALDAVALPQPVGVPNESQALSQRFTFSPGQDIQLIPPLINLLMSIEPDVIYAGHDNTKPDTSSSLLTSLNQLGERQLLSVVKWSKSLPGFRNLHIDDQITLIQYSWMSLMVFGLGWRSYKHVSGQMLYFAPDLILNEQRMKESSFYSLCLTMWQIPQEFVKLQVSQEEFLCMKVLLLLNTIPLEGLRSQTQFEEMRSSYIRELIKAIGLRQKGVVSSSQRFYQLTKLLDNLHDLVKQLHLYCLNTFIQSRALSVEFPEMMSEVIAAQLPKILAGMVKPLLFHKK
Assay: In Vitro PR Luciferase Reporter Assay (antagonist mode, CHO-K1-PR-MMTV-Luc reporter cells)
Assay type: cell-based
Conditions: antagonist assay with 20 nM Progesterone, 18-24 hours, read-out: PR antagonism IC50
From the text: Example C: In Vitro PR Luciferase Reporter Assay
Cell Line: CHO-KI-PR-MMTV-Luc reporter cells
Culture Media: DMEM (with phenol red)+1000FBS
Assay Media: DMEM (without phenol red)+1000CSS
Culture CHO-Kl-PR-MMTV-Luc reporter cells in 15 cm plates in Culture Media at conditions less than 90% confluence.
Prepared 200×DMSO 1:8 serial dilutions of control and test compounds in 96-well non-sterile V bottom plate in DMSO, 8 serial dilutions for each compound.
Prepared 5× Assay Media diluted compound serial dilutions in 96-well non-sterile V bottom plate: Add 97.5 μL/well of Assay Media into 96-well then add 2.5 μl of 200× concentration of compounds and mix well.
Added compounds: 5 μl of assay media diluted compounds were added to appropriate wells and followed a quick spin (1000 rpm, 10 sec) to bring media and cells to the bottom of plate. The plates were covered with SealMate film to avoid evaporation and placed in 37° C. incubator for approximately 18-24 hours.
Read plates: Equilibrated appropriate amount of Promega One-Glo luciferase reagent to room temperature. Removed the plates from incubator and added 25 μL of One-Glo luciferase reagent/well by multiple channel pipette and read the plates with Tecan F500 luminometer within 3 minutes.
The ability of exemplary compounds disclosed herein to inhibit PR activity was quantified and the respective IC50 value was determined. Table 4 provides the cellular IC50 values of exemplary compounds disclosed herein.

Row | Structure (SMILES) | IC50 [µM]
1 | Cn1cnc(S(=O)(=O)N(C2CC2)[C@H]2CCC3=Cc4c(cnn4-c4ccc(F)cc4)C[C@]3(C(=O)c3ncc(C(F)(F)F)s3)C2)n1 [Example 305, N-cyclopropyl-N-((4aS,6S)-1-(4-fluorophenyl)-4a-(5-(trifluoromethyl)thiazole-2-carbonyl)-4,4a,5,6,7,8-hexahydro-1H-benzo[f]indazol-6-yl)-1-methyl-1H-1,2,4-triazole-3-sulfonamide] | > 5
2 | Cn1cnc(S(=O)(=O)N(C2CC2)[C@H]2CCC3=Cc4c(cnn4-c4ccc(F)cc4)C[C@]3(C(=O)c3cc(C(F)(F)F)ccn3)C2)n1 [Example 306, N-cyclopropyl-N-((4aS,6S)-1-(4-fluorophenyl)-4a-(4-(trifluoromethyl)picolinoyl)-4,4a,5,6,7,8-hexahydro-1H-benzo[f]indazol-6-yl)-1-methyl-1H-1,2,4-triazole-3-sulfonamide] | > 5
